Measured values taken from US10421765B2, “Tetrahydropyrido[4,3-d]pyrimidine inhibitors of ATR kinase” (Board of Regents, The University of Texas System, priority 2017, dated 2019).
Read-outs that look alike come from different tables or passages of the source.

Experiments:
[1] = test system: ATR-driven phosphorylation of Chk1 kinase at Serine 345 in HT-29 colorectal adenocarcinoma cells; assay: pCHK1 cellular assay (CHK1 p-Ser345 AlphaScreen SureFire); type: cell-based; conditions: 4-nitroquinoline N-oxide 12 uM, read-out: Cell IC50 (pCHK1 IC50 values)
Protocol: Inhibitors of ATR kinase are effective at inhibiting the ATR-driven phosphorylation of the downstream target Chk1 kinase at Serine 345, following the addition of 4-nitroquinoline N-oxide, a chemical used to induce DNA damage. Cellular IC50 for the inhibitors of ATR described herein were measured in HT-29 colorectal adenocarcinoma cells. HT-29 cells were routinely maintained in McCoy's 5A media (ATCC Catalog #30-2007) supplemented with 10% fetal bovine serum (Sigma Catalog #F2442) and 1× Penicillin-Streptomycin (Gibco Catalog #15140-122) using a humidified incubator (37° C., 5% CO2, and ambient O2).
In preparation for the CHK1 (p-Ser345) ALPHASCREEN® SUREFIRE® assay, cells were harvested and resuspended in McCoy's 5A media supplemented with 10% fetal bovine serum and 1× Penicillin-Streptomycin. Cells were seeded onto a 384-well black CELLSTAR® Tissue Culture Plate (VWR Catalog #89085-314) at a density of 13,000 cells/well in a volume of 40 uL. The microplate was incubated overnight (approximately 20 hours) at 37° C. with 5% CO2 and ambient O2. Stock solutions of the test compounds were prepared in 100% DMSO (Sigma, Catalog #D2650) and serially diluted 1:3 using 100% DMSO. Compounds were additionally diluted 1:33 in culture medium, and 10 ul/well were transferred to the tissue culture plate. Following the compound addition the microplate was incubated at 37° C. for 90 minutes. 10 uL of 4-nitroquinoline N-oxide (Sigma Aldrich Catalog #N8141-1G) diluted in media (final concentration 12 uM) were added to the tissue culture plate followed by a 120 minute incubation at 37° C. The cells were then washed with PBS and lysed using 10 uL/well SUREFIRE® Kit lysis buffer diluted to 1× in water (PerkinElmer Catalog #TGRCHK1S50K), with mixing on an orbital shaker at 500 rpm for 20 min at RT. Lysates were frozen at −20° C. overnight.
4 uL/well of lysate was then transferred from the tissue culture plate to a 384-well, white, low volume, PROXIPLATE™ (PerkinElmer Catalog #600828). 5 uL/well of the acceptor bead solution, prepared by diluting SUREFIRE® Kit activation buffer (PerkinElmer Catalog #TGRCHK1S50K) and ALPHASCREEN® Protein A acceptor beads (PerkinElmer Catalog #6760617R) in SUREFIRE® Kit reaction buffer (PerkinElmer Catalog #TGRCHK1S50K), were added to the lysates under subdued light and incubated at room temperature for 120 min. 2 uL/well of the donor bead solution, prepared by diluting ALPHASCREEN® Streptavidin donor beads (PerkinElmer Catalog #6760617R) in SUREFIRE® Kit dilution buffer (PerkinElmer Catalog #TGRCHK1S50K), were added under subdued light and incubated at room temperature for an addition 120 minutes. The pCHK1 ALPHASCREEN® signal was measured using an ENVISION® plate reader (PerkinElmer). IC50 values were calculated using a four-parameter logistic curve fit using Genedata Screener software. Percent of control for each compound concentration was calculated by the following formula: 100*(Compound−Min)/(Max−Min) where “Max” is the high control, DMSO, and “Min” is the low control, 5 uM ATR inhibitor.

ATR/ATRIP complex = ATR/ATRIP complex (Homo sapiens (Human), UniProt Q13535); assay: ATR/ATRIP enzymatic assay (Caliper-based); type: biochemical; conditions: FAM-labeled RAD17 peptide, ATP
Protocol: Human full-length FLAG-TEV-ATR and His6-ATRIP were co-expressed in HEK293 cells. The cell pellet (20 g) was harvested and lysed in 100 mL of lysis buffer (20 mM Tris-HCl pH 7.5 at room temperature, 137 mM NaCl, 10% glycerol, 1 mM DTT, 1% (v/v) Tween-20, 0.1% (v/v) NP-40, complete protease inhibitor cocktail tablets, phosphatase inhibitor cocktail tablets, 2 mM MgCl2, 0.2 mM EDTA, and 1 mM ATP). After sonication and centrifugation, the supernatant was incubated at 4° C. for 3 hours with 1 mL of anti-FLAG resin (Sigma catalog #A2220) that had been pre-equilibrated in buffer A (20 mM Tris-HCl pH 7.5 at room temperature, 137 mM NaCl, 10% glycerol, 1 mM DTT, 2 mM MgCl2, and 0.2 mM EDTA). The sample was loaded into a column, and then washed with buffer A three times. Protein was subsequently eluted with 2 ml of buffer B (buffer A+200 μg/ml 3×FLAG peptide).
The ability of new chemical matter to inhibit the ATR catalytic activity in this ATR/ATRIP complex was assessed using a Caliper-based assay. A 2x enzyme solution (i.e., 4 nM enzyme) was prepared using 1× Kinase Reaction Buffer (25 mM HEPES pH 8, 0.0055% Brij-35, 10 mM MnCl2, and 1 mM DTT). A 2x peptide solution was then prepared consisting of 10 uM FAM-labeled RAD17 peptide (GL Biochem, catalog #524315) in 1× Kinase Reaction Buffer supplemented with 2 μM ATP. 10 μL of the 2× enzyme solution was transferred to an assay plate containing 60 nL of test compound (from a 3× serial dilution) in 100% DMSO. Following a 30 minute incubation at 28° C., 10 μL of the 2× peptide solution was then transferred to the same assay plate. The reaction was allowed to incubate at 28° C. for 6 hours. After adding […] of stop buffer (100 mM HEPES pH 7.5, 0.015% Brij-35, 0.2% Coating-3 Reagent (PerkinElmer, catalog #PN760050), and 50 mM EDTA), data were collected on a Caliper instrument. Conversion values were converted to inhibition values via the following equation: % inhibition=(max−conversion)/(max−min)*100, whereby “max” corresponds to the DMSO control and “min” corresponds to the low control. IC50 values were calculated using the following equation in XLFit: Y=Bottom+(Top−Bottom)/1+(IC50/X)^HillSlope).

[2] = Homo sapiens, HT-29, HT-29 cells
[3] = estimated range, read-out: ATR/ATRIP Enzyme IC50 (estimated class)
[4] = read-out: ATR/ATRIP Enzyme IC50

ATR/ATRIP complex, sequence (Q13535 whole entry): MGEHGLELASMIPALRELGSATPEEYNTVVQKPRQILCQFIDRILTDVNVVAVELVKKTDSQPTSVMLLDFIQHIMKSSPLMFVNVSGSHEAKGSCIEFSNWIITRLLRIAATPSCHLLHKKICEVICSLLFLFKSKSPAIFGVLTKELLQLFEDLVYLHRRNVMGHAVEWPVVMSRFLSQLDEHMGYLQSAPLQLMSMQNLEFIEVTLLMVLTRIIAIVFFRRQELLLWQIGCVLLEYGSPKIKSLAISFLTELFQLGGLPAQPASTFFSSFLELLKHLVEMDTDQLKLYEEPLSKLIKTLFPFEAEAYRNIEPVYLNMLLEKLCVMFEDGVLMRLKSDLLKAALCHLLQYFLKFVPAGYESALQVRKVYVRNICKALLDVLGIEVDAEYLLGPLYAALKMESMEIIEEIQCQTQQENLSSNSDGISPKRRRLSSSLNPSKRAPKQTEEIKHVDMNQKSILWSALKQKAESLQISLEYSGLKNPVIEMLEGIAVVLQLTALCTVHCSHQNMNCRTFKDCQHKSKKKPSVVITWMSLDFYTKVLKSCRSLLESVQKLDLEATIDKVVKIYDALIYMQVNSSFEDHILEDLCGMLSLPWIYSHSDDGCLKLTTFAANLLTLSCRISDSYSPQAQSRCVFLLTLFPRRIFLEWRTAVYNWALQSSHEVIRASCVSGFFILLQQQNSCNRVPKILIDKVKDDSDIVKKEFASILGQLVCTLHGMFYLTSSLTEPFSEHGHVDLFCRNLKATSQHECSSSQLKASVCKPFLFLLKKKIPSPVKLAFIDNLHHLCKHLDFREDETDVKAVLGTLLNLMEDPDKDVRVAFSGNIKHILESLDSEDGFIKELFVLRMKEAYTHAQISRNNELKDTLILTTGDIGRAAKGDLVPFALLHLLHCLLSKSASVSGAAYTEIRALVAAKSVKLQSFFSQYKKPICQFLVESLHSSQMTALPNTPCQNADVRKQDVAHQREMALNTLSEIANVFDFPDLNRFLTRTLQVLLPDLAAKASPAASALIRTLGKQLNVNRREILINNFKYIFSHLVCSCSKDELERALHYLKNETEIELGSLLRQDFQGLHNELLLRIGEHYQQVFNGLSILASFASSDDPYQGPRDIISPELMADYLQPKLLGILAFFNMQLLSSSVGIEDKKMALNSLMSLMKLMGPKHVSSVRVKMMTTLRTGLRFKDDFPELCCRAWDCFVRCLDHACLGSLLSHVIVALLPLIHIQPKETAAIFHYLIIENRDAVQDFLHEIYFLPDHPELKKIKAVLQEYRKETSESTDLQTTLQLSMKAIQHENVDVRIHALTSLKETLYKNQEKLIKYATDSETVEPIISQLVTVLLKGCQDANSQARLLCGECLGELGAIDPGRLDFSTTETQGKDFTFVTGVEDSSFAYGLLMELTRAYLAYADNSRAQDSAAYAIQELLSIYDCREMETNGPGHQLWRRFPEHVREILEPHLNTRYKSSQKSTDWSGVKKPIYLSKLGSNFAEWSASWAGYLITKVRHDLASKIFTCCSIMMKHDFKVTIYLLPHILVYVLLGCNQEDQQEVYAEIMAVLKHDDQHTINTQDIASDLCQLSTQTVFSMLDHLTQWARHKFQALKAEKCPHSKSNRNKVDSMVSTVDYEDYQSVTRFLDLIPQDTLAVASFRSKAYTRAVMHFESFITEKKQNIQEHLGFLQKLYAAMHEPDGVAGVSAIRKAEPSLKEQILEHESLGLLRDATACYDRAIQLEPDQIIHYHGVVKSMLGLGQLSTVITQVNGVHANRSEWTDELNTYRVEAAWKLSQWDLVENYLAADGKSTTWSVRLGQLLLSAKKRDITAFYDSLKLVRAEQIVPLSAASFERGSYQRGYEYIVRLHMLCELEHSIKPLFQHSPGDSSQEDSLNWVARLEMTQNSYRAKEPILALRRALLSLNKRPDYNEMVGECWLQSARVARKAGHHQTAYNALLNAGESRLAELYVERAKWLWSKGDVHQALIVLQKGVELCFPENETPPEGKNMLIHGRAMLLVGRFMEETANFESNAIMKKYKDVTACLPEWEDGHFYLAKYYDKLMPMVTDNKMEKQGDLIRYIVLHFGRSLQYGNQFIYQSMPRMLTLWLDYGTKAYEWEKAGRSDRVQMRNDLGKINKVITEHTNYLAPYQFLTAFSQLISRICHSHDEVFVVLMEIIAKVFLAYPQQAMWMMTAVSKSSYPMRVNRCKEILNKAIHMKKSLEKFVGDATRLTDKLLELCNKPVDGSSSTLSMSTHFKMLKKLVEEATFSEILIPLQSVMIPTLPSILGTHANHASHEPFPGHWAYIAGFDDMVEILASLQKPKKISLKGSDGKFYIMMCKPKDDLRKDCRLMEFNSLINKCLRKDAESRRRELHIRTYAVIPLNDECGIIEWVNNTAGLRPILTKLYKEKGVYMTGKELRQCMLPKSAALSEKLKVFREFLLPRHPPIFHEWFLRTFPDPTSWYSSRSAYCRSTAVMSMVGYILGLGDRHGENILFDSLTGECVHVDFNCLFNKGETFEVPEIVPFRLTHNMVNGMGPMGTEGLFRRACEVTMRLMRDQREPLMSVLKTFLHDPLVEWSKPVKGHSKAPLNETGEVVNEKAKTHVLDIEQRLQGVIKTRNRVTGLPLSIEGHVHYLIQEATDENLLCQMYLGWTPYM
ATR/ATRIP complex, sequence (Q8WXE1 whole entry partner): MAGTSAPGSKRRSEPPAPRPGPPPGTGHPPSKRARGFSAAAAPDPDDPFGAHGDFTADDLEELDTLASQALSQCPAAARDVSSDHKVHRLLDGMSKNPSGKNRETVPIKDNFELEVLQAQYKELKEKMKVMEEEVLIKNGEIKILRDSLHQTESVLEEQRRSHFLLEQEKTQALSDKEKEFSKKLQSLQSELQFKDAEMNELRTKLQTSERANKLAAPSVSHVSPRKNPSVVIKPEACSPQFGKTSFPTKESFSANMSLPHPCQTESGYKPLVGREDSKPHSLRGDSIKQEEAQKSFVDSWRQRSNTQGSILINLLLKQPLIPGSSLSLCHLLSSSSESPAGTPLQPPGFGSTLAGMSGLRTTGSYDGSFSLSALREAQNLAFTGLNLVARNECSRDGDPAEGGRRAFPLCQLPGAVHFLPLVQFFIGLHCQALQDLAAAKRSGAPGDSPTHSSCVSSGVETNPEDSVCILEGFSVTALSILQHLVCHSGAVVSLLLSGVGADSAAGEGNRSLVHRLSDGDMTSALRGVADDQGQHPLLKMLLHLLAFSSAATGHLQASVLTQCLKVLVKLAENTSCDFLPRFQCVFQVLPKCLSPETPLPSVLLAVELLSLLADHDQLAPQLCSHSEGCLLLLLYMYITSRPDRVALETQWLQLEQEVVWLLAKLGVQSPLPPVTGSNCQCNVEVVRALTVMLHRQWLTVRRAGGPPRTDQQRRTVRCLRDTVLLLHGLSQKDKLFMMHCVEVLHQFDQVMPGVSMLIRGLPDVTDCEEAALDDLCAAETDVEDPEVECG

Row | IC50 [1, 2] | IC50 (ATR/ATRIP complex; [4]) | Compound | other results
1 | 97 nM | – | C[C@@H]1Cc2ncnc(N3CCN(S(C)(=O)=O)CC3)c2CN1c1cc(Cl)nc2[nH]ccc12 [Example 20, 1-[(7R)-6-{6-chloro-1H-pyrrolo[2,3-b]pyridin-4-yl}-7-methyl-5H,6H,7H,8H-pyrido[4,3-d]pyrimidin-4-yl]-4-methanesulfonyl-piperazine] | IC50 (ATR/ATRIP complex; [3]): 1000 to 10000 nM
2 | 8 nM | 159 nM | C[C@@H]1Cc2ncnc(N3CCCC(S(C)(=O)=O)C3)c2CN1c1cc(Cl)nc2[nH]ccc12 (stereo partly drawn) [Example 65, (7R)-6-(6-chloro-1H-pyrrolo[2,3-b]pyridin-4-yl)-7-methyl-4-(3-(methylsulfonyl)-piperidin-1-yl)-5,6,7,8-tetrahydropyrido[4,3-d]-pyrimidine] | –
3 | 21 nM | 320 nM | C[C@@H]1Cc2ncnc(N3CC(O)C3)c2CN1c1cc(Cl)nc2[nH]ccc12 [Example 77, (R)-1-(6-(6-chloro-1H-pyrrolo[2,3-b]pyridin-4-yl)-7-methyl-5,6,7,8-tetrahydropyrido[4,3-d]-pyrimidin-4-yl)azetidin-3-ol] | –
4 | 48 nM | 475 nM | COC1CCN(c2ncnc3c2CN(c2cc(Cl)nc4[nH]ccc24)[C@H](C)C3)CC1 [Example 68, (R)-6-(6-chloro-1H-pyrrolo[2,3-b]pyridin-4-yl)-4-(4-methoxy-piperidin-1-yl)-7-methyl-5,6,7,8-tetrahydro-pyrido[4,3-d]pyrimidine] | –
5 | 1940 nM | – | CS(=O)(=O)N1CCC(c2ncnc3c2CN(c2ccnc4[nH]ccc24)CC3)CC1 [Example 2, 4-(1-(Methylsulfonyl)piperidin-4-yl)-6-(1H-pyrrolo[2,3-b]pyridin-4-yl)-5,6,7,8-tetrahydropyrido[4,3-d]pyrimidine bis(trifluoroacetate)] | IC50 (ATR/ATRIP complex; [3]): 1000 to 10000 nM
6 | 10000 nM | – | CS(=O)(=O)N1CCC(c2ncnc3c2CN(c2ccnc4[nH]ccc24)[C@@H](C(F)F)C3)CC1 [Example 53a, (R)-7-(difluoromethyl)-4-(1-(methylsulfonyl)piperidin-4-yl)-6-(1H-pyrrolo[2,3-b]pyridin-4-yl)-5,6,7,8-tetrahydropyrido[4,3-d]pyrimidine] | ATR/ATRIP Enzyme IC50 (ATR/ATRIP complex): no fit
7 | 15 nM | 87 nM | CC(C)Oc1cc(N2Cc3c(ncnc3C3CCN(S(C)(=O)=O)CC3)C[C@H]2C)c2cc[nH]c2n1 [Example 93, (R)-6-(6-isopropoxy-1H-pyrrolo[2,3-b]pyridin-4-yl)-7-methyl-4-(1-(methylsulfonyl)piperidin-4-yl)-5,6,7,8-tetrahydro-pyrido[4,3-d]pyrimidine] | –
8 | 758 nM | 3330 nM | C[C@@H]1Cc2ncnc([C@@H]3CCN(S(C)(=O)=O)C(C)(C)C3)c2CN1c1ccnc2[nH]ccc12 (single isomer, unassigned) [Example 48a] | –
9 | 362 nM | 936 nM | C[C@@H]1Cc2ncnc(C3CCN(S(C)(=O)=O)C3)c2CN1c1ccnc2[nH]ccc12 (stereo partly drawn) [Example 17, 1-methanesulfonyl-3-[(7R)-7-methyl-6-{1H-pyrrolo[2,3-b]pyridin-4-yl}-5H,6H,7H,8H-pyrido[4,3-d]pyrimdin-4-yl]pyrrolidine] | –
10 | 9 nM | 140 nM | CNC(=O)[C@H]1CCCN(c2ncnc3c2CN(c2cc(Cl)nc4[nH]ccc24)[C@H](C)C3)C1 [Example 67, (S)-1-((R)-6-(6-chloro-1H-pyrrolo[2,3-b]pyridin-4-yl)-7-methyl-5,6,7,8-tetrahydropyrido[4,3-d]-pyrimidin-4-yl)-N-methylpiperidine-3-carboxamide] | –
11 | 27 nM | – | C[C@@H]1Cc2ncnc(N3C[C@H]4CC[C@@H](C3)[C@H]4NS(C)(=O)=O)c2CN1c1cc(Cl)nc2[nH]ccc12 [Example 39, N-((1R,5S)-(8-syn)-3-((R)-6-(6-chloro-1H-pyrrolo[2,3-b]pyridin-4-yl)-7-methyl-5,6,7,8-tetrahydropyrido[4,3-d]pyrimidin-4-yl)-3-azabicyclo[3.2.1]octan-8-yl)methanesulfonamide] | –
12 | – | – | C[C@@H]1Cc2ncnc(C3CCN(S(C)(=O)=O)CC3)c2CN1c1ncnc2[nH]ccc12 [Example 43, (R)-7-methyl-4-(1-(methylsulfonyl)piperidin-4-yl)-6-(7H-pyrrolo[2,3-d]pyrimidin-4-yl)-5,6,7,8-tetrahydropyrido[4,3-d] pyrimidine] | IC50 (ATR/ATRIP complex; [3]): 1000 to 10000 nM
13 | 128 nM | – | C[C@@H]1Cc2ncnc(N3CC(S(C)(=O)=O)C3)c2CN1c1ccnc2[nH]ccc12 [Example 36, 3-methanesulfonyl-1-[(7R)-7-methyl-6-{1H-pyrrolo[2,3-b]pyridin-4-yl}-5H,6H,7H,8H-pyrido[4,3-d]pyrimidin-4-yl]azetidine] | –
14 | – | 615 nM | C[C@@H]1Cc2ncnc(N3CCC(S(C)(=O)=O)CC3)c2CN1c1ccnc2[nH]ccc12 [Example 88, (R)-7-methyl-4-(4-(methylsulfonyl)-piperidin-1-yl)-6-(1H-pyrrolo[2,3-b]pyridin-4-yl)-5,6,7,8-tetrahydro-pyrido[4,3-d]pyrimidine] | –
15 | – | – | C[C@@H]1Cc2ncnc([C@@H]3CCCN(S(C)(=O)=O)C3)c2CN1c1cc(Cl)nc2[nH]ccc12 (single isomer, unassigned) [Example 51a] | IC50 ([1]; HT-29 cells): 11 nM
16 | – | – | C[C@@H]1Cc2ncnc([C@H]3CCCN(S(C)(=O)=O)C3)c2CN1c1cc(Cl)nc2[nH]ccc12 (single isomer, unassigned) [Example 51b] | IC50 ([1]; HT-29 cells): 48 nM
17 | 34 nM | – | C[C@@H]1Cc2ncnc(N3CC(NS(C)(=O)=O)C3)c2CN1c1cc(Cl)nc2[nH]ccc12 [Example 35, N-{1-[(7R)-6-{6-chloro-1H-pyrrolo[2,3-b]pyridin-4-yl}-7-methyl-5H,6H,7H,8H-pyrido[4,3-d]pyrimidin-4-yl]azetidin-3-yl}methanesulfonamide] | –
